According to patent US5308625A, “Enhancement of transdermal drug delivery using monoalkyl phosphates and other absorption promoters” (priority 1992, dated 1994):
Values after ≈ are worked out from the molar mass of the structure shown. “Also recorded” adds a separate entry of the source. Like-named read-outs stand apart in the source and are kept apart here.

How the values were obtained:
[1] = test system: human cadaver epidermis; assay: Skin flux through human cadaver epidermis (modified Franz vertical diffusion cell, 32° C)
[2] = test system: human skin; details: in vivo; cited from earlier work
[3] = test system: coronary strips; details: cited from earlier work; for dependence of vasodilation action on cysteine: presence / absence of cysteine
[4] = test system: soluble guanylate cyclase; details: by nitric oxide liberated from the active metabolite SIN-1A; cited from earlier work
[5] = test system: patients with coronary heart disease; details: cited from earlier work
[6] = oral dose of 2 mg; cited from earlier work
[7] = cited from earlier work
[8] = cited from earlier work; remark: listed apart in the source
[9] = test system: human cadaver epidermis; details: pH 6.8
[10] = in vivo; cited from earlier work
[11] = Solubilities of molsidomine in various solvents (saturation at 32° C., HPLC); assay type: physicochemical
Experimental: Molsidomine powder was weighed on weighing paper and transferred into the sample vial. Solvent was transferred into the vial followed by insertion of a small Teflon-coated magnetic stirring bar. The sample vial was screw-capped and placed on top of a multiple stirring system obtained from Florida Scientific, Inc. and housed in an incubation oven at 32° C. The sample solutions were examined for saturation. More molsidomine was added to the solutions until saturation was achieved.
The saturated solutions were filtered through a micro filter to remove excess solid molsidomine. The filtered samples were then assayed for molsidomine concentration by the HPLC analytical method.
In this way, the solubility of molsidomine in the particular vehicle(s) was estimated.

In the case of `CCCCCCCCCCCCOP(=O)(O)O` [mono-dodecyl phosphate (DDPO4), phosphoric acid mono-dodecyl ester], the “permeation enhancement of molsidomine (increment of skin flux)” value ([1]; addition of 10% DDPO4 to PGML, FIG. 3) is given as “four times increment”, the “pirsidomine skin permeation enhancement” value ([1]; pirsidomine) is given as “showed pirsidomine skin permeation enhancement” and the “human skin irritation potential” value [2] is given as “very low human skin irritation potential”.

In the case of `O=[N+]([O-])OCC(CO[N+](=O)[O-])O[N+](=O)[O-]` [nitroglycerin], the tolerance [3] is given as “tolerance toward the drug developed in coronary strips can be antagonized by cysteine” and the “dependence of vasodilation action on cysteine” value [3] is given as “depends on the presence of cysteine”.

In the case of `N#CCN(N=O)N1CCOCC1` [SIN-1A], the “activation of soluble guanylate cyclase” value [4] is listed as “activates the soluble guanylate cyclase” and the “dependence of vasodilation action on cysteine” value [3] is listed as “active in both the presence and absence of cysteine”.

For `CCOC(=O)[N-]c1cn(N2CCOCC2)n[o+]1` [Molsidomine, N-5-ethoxycarbonyl-3-morpholinosydnonimine], the “treatment and prevention of anginal pectoris” value ([5]; daily oral dosing of 2 mg for 3 to 4 times, clinical studies) is given as “effective”, the anti-anginal effect ([5]; human, in vivo) is given as “sustained anti-anginal effect” and the “duration of anti-anginal effects” value ([5]; single oral dose of 2 mg, patients with coronary heart disease) is given as 3 to 5 h. For the same compound, the total clearance [6] was 46,000 ml/hr, the “Chemical stability (in words)” value ([7]; aqueous solution of pH 5 to 7) was “very stable; also recorded: most stable” and the t90 ([7]; pH 1-2, 20° C.) was 38 days. For the same compound, the t90 ([7]; pH 4, 20° C.) was 250 days, the t90 ([7]; pH 5-7, 20° C.) was 950 days and the t90 ([7]; pH 10, 20° C.) was 400 days. The t90 ([7]; pH 11, 20° C.) was 40 days, the Photosensitivity ([7]; particularly in sunlight) was “photosensitive” and the Saturated solubility ([8]; Glycerin, 25° C.) was 1.80%. For the same compound, the Saturated solubility ([8]; Glycol salicylate, 25° C.) was 15.1%, the Saturated solubility ([8]; Isopropyl myristate, 25° C.) was 0.09% and the Saturated solubility ([8]; Octyl.decyl oil, 25° C.) was 0.36%. The Saturated solubility ([8]; Oleic Acid, 25° C.) was 1.37%, the Saturated solubility ([8]; PEG 400, 25° C.) was 5.23% and the “Solubility (in words)” value ([8]; in CHCl3) was “Freely soluble”. The “Solubility (in words)” value ([8]; in dil HCl, ethanol, ethyl acetate and methanol) was “Soluble”, the “Solubility (in words)” value ([8]; in ether, petr ether) was “very slightly soluble” and the “Solubility (in words)” value ([8]; in propylene glycol and a variety of organic solvents) was “soluble”. The “Solubility (in words)” value ([8]; in water, acetone, benzene) was “sparingly soluble”, the “skin flux from aqueous solution” value [9] was 9.7±1.9 μg/hr-cm^2 and the metabolism [10] was “can be metabolized to SIN-1”. The tolerance [3] was “insignificant tolerance”, the solubility ([11]; aqueous buffer, Phosphate buffer pH 5.68, read-out: Solubilities) was 12.3 ± 1.8 mg/mL (≈ 50.8 mM) and the solubility ([11]; organic solvent or mixture, Propylene Glycol (PG), read-out: Solubilities) was 85.5 ± 3.9 mg/mL (≈ 353 mM). The solubility ([11]; organic solvent or mixture, propylene glycol and propylene glycol with 10% of oleic acid, lauryl alcohol or PGML, read-out: solubility) was about 90 mg/mL (≈ 372 mM), the solubility ([11]; pH 6.8, aqueous buffer, Phosphate buffer pH 6.80, read-out: Solubilities) was 12.1 ± 1.3 mg/mL (≈ 50 mM) and the solubility ([11]; propylene glycol:lauryl alcohol (10%), organic solvent or mixture, PG:Lauryl Alcohol (10%), read-out: Solubilities) was 89.3 ± 1.5 mg/mL (≈ 369 mM). It also gave a solubility ([11]; propylene glycol:oleic acid (10%), organic solvent or mixture, PG:Oleic Acid (10%), read-out: Solubilities) of 88.1 ± 0.7 mg/mL (≈ 364 mM) and a solubility ([11]; propylene glycol:pgml (10%), organic solvent or mixture, PG:PGML (10%), read-out: Solubilities) of 92.9 ± 2.8 mg/mL (≈ 384 mM).
